The text below walks through data of patent US12018021B2 (UCB Biopharma SRL, priority 2018, dated 2024).

In general, IC50 refers to the concentration that inhibits the measured activity by half.

Chain of IgE-Tb / sFcεRIα-Y131A-AF488 (P01854 whole entry N146Q/N252Q): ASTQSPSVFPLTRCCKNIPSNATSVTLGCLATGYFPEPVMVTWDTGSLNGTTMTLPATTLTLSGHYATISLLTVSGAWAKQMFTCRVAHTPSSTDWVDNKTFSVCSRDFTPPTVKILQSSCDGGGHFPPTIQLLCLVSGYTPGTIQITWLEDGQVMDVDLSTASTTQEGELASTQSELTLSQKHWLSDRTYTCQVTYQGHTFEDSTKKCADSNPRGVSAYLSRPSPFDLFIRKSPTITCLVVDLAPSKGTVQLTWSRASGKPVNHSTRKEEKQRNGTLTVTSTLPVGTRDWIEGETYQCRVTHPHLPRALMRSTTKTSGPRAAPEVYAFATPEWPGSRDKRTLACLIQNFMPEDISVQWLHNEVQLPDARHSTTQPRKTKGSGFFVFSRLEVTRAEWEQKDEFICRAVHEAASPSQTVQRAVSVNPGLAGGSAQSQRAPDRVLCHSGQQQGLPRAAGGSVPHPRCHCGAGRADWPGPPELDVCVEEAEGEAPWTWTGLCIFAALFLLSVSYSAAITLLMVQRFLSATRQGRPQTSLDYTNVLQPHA

The target of this assay is IgE-Tb / sFcεRIα-Y131A-AF488 (Homo sapiens, UniProt P01854, N146Q/N252Q). Put plainly: IgE-Tb / sFcεRIα-Y131A-AF488 FRET assay (protocol for examples 234 to 501). The format is binding. The following applies: examples 234 to 501: compound with IgE-Tb 30 minutes before sFcεRIα-Y131A-AF488, incubated 18 hours at room temperature; read-out: Y131A FRET IC50 range. The gist of the method:
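Compounds (10-point 3-fold series, top usually 10 μM, 2% DMSO) preincubated 30 min with 5 nM IgE-Tb, then 25 nM sFcεRIα-Y131A-AF488 added; 18 h at room temperature in the dark. TR-FRET ratio 520/490 nm after 337 nm excitation, background-subtracted; IC50 by four-parameter logistic fit.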
`Cn1nc(C(F)F)cc1Nc1nncn1[C@H]1CCc2sc(NC(=O)CC(F)F)c(C(=O)NCC3CC3)c2C1` [Example 358, (5S)—N-(cyclopropylmethyl)-5-[3-[[5-(difluoromethyl)-2-methylpyrazol-3-yl]amino]-1,2,4-triazol-4-yl]-2-(3,3-difluoropropanoylamino)-4,5,6,7-tetrahydro-1-benzothiophene-3-carboxamide]: the IC50 is under 1 µM.
Regarding `Cn1nc(C(F)F)cc1Nc1nncn1[C@H]1CCc2sc(NC(=O)C3CCC3)c(C(=O)NCC3CC3)c2C1` [Example 359, (5S)-2-(cyclobutanecarbonylamino)-N-(cyclopropylmethyl)-5-[3-[[5-(difluoromethyl)-2-methylpyrazol-3-yl]amino]-1,2,4-triazol-4-yl]-4,5,6,7-tetrahydro-1-benzothiophene-3-carboxamide], the IC50 is under 1 µM.
Turning to `CC(C)C(=O)Nc1sc2c(c1C(=O)NCC1CC1)C[C@@H](n1cnnc1Nc1cc(C(F)F)nn1C)CC2` [Example 360, (5S)—N-(cyclopropylmethyl)-5-[3-[[5-(difluoromethyl)-2-methylpyrazol-3-yl]amino]-1,2,4-triazol-4-yl]-2-(2-methylpropanoylamino)-4,5,6,7-tetrahydro-1-benzothiophene-3-carboxamide], the IC50 was under 1 µM.
Take `Cn1nc(C(F)F)cc1Nc1nncn1[C@H]1CCc2sc(NC(=O)[C@H]3C[C@@H]3F)c(C(=O)NCC3CC3)c2C1` [Example 368, (5S)—N-(cyclopropylmethyl)-5-[3-[[5-(difluoromethyl)-2-methyl-pyrazol-3-yl]amino]-1,2,4-triazol-4-yl]-2-[[(1R,2S)-2-fluorocyclopropanecarbonyl]amino]-4,5,6,7-tetrahydrobenzothiophene-3-carboxamide]: the IC50 is under 1 µM.
On to `Cn1nc(C(F)F)cc1Nc1nncn1[C@H]1CCc2sc(NC(=O)C3CC3)c(C(=O)N[C@H]3C[C@H](F)C3)c2C1` [Example 373, (5S)-2-(cyclopropanecarbonylamino)-5-[3-[[5-(difluoromethyl)-2-methylpyrazol-3-yl]amino]-1,2,4-triazol-4-yl]-N-(trans-3-fluorocyclobutyl)-4,5,6,7-tetrahydro-1-benzothiophene-3-carboxamide], for which the 50% inhibitory concentration (IC50) is under 1 µM.
In the case of `Cn1nc(OC(F)F)cc1Nc1nncn1[C@H]1CCc2sc(NC(=O)[C@H]3C[C@@H]3F)c(C(=O)NC[C@H]3C[C@H]3F)c2C1` [Example 380, (5S)-5-[3-[[5-(difluoromethoxy)-2-methylpyrazol-3-yl]amino]-1,2,4-triazol-4-yl]-2-[[(1R,2S)-2-fluorocyclopropanecarbonyl]amino]-N-[[(1R,2R)-2-fluorocyclopropyl]methyl]-4,5,6,7-tetrahydro-1-benzothiophene-3-carboxamide], the IC50 was under 1 µM.
For `Cn1nc(C(F)F)cc1Nc1nncn1[C@H]1CCc2sc(NC(=O)C3CC3)c(C(=O)NC3CC(F)(F)C3)c2C1` [Example 387, (5S)-2-(cyclopropanecarbonylamino)-N-(3,3-difluorocyclobutyl)-5-[3-[[5-(difluoromethyl)-2-methylpyrazol-3-yl]amino]-1,2,4-triazol-4-yl]-4,5,6,7-tetrahydro-1-benzothiophene-3-carboxamide] the value was under 1 µM; for `Cn1nc(C(F)F)cc1Nc1nncn1[C@H]1CCc2sc(NC(=O)C3CC3)c(C(=O)N[C@H]3C[C@@H](F)C3)c2C1` [Example 388, (5S)-2-(cyclopropanecarbonylamino)-5-[3-[[5-(difluoromethyl)-2-methylpyrazol-3-yl]amino]-1,2,4-triazol-4-yl]-N-(cis-3-fluorocyclobutyl)-4,5,6,7-tetrahydro-1-benzothiophene-3-carboxamide], under 1 µM; for `Cn1nc(C(F)F)cc1Nc1nncn1[C@H]1CCc2sc(NC(=O)C3CC3)c(C(=O)NCC3CC(F)(F)C3)c2C1` [Example 389, (5S)-2-(cyclopropanecarbonylamino)-N-[(3,3-difluorocyclobutyl)methyl]-5-[3-[[5-(difluoromethyl)-2-methylpyrazol-3-yl]amino]-1,2,4-triazol-4-yl]-4,5,6,7-tetrahydro-1-benzothiophene-3-carboxamide], under 1 µM.
For `CC1CC1CNC(=O)c1c(NC(=O)C2CC2F)sc2c1CC(n1cnnc1Nc1cc(C(F)(F)F)nn1C)CC2` [Example 390, (5S)-2-[[(1R,2R)-2-fluorocyclopropanecarbonyl]amino]-N-[[1RS,2RS)-2-methylcyclopropyl]methyl]-5-[3-[[2-methyl-5-(trifluoromethyl)pyrazol-3-yl]amino]-1,2,4-triazol-4-yl]-4,5,6,7-tetrahydro-1-benzothiophene-3-carboxamide (cis)], the IC50 is under 1 µM.
Regarding `Cn1nc(C(F)(F)F)cc1Nc1nncn1[C@H]1CCc2sc(NC(=O)[C@H]3C[C@H]3F)c(C(=O)NC[C@@H]3C[C@@H]3F)c2C1` [Example 392, (5S)-2-[[(1R,2R)-2-fluorocyclopropanecarbonyl]amino]-N-[[(1S,2S)-2-fluorocyclopropyl]methyl]-5-[3-[[2-methyl-5-(trifluoromethyl)pyrazol-3-yl]amino]-1,2,4-triazol-4-yl]-4,5,6,7-tetrahydro-1-benzothiophene-3-carboxamide], the 50% inhibitory concentration (IC50) is under 1 µM.
For `Cn1nc(C(F)(F)F)cc1Nc1nncn1[C@H]1CCc2sc(NC(=O)[C@H]3C[C@H]3F)c(C(=O)NC[C@H]3C[C@@H]3F)c2C1` [Example 395, (5S)-2-[[(1R,2R)-2-fluorocyclopropanecarbonyl]amino]-N-[[(1R,2S)-2-fluorocyclopropyl]methyl]-5-[3-[[2-methyl-5-(trifluoromethyl)pyrazol-3-yl]amino]-1,2,4-triazol-4-yl]-4,5,6,7-tetrahydro-1-benzothiophene-3-carboxamide] the value was under 1 µM; for `Cn1nc(C(F)(F)F)cc1Nc1nncn1[C@H]1CCc2sc(NC(=O)[C@H]3C[C@H]3F)c(C(=O)NC[C@H]3C[C@H]3F)c2C1` [Example 399, (5S)-2-[[(1R,2R)-2-fluorocyclopropanecarbonyl]amino]-N-[[(1R,2R)-2-fluorocyclopropyl]methyl]-5-[3-[[2-methyl-5-(trifluoromethyl)pyrazol-3-yl]amino]-1,2,4-triazol-4-yl]-4,5,6,7-tetrahydro-1-benzothiophene-3-carboxamide], under 1 µM.
Regarding `Cn1nc(C(F)(F)F)cc1Nc1nncn1[C@H]1CCc2sc(NC(=O)[C@@H]3C[C@@H]3F)c(C(=O)NCC3CC3)c2C1` [Example 401], the IC50 is under 1 µM.
For `Cn1nc(C(F)(F)F)cc1Nc1nncn1[C@H]1CCc2sc(NC(=O)[C@H]3C[C@H]3F)c(C(=O)N[C@H]3C[C@H](F)C3)c2C1` [Example 402, (5S)—N-(trans-3-fluorocyclobutyl)-2-[[(1R,2R)-2-fluorocyclopropanecarbonyl]amino]-5-[3-[[2-methyl-5-(trifluoromethyl)pyrazol-3-yl]amino]-1,2,4-triazol-4-yl]-4,5,6,7-tetrahydro-1-benzothiophene-3-carboxamide] the value was under 1 µM.
As to `[2H]C([2H])([2H])n1nc(C(F)F)cc1Nc1nncn1[C@H]1CCc2sc(NC(=O)C3CC3)c(C(=O)NCC3CC3)c2C1` [Example 403, (5S)-2-(cyclopropanecarbonylamino)-N-(cyclopropylmethyl)-5-[3-[[5-(difluoromethyl)-2-(trideuteriomethyl)pyrazol-3-yl]amino]-1,2,4-triazol-4-yl]-4,5,6,7-tetrahydrobenzothiophene-3-carboxamide], the concentration for half-maximal inhibition (IC50) is under 1 µM.
